These are literature values, as cited in patent US8518429B2, “Arsenic trioxide medical elution scaffold” (Beijing Amsino Medical Co., Ltd., priority 2007, dated 2013).

One data set concerns VSMCs. The conditions noted are these: found by Zhuoqi ZHANG et al. and Jianwei SHAO et al.
For a further data set, the system named is promyelocytic leukemia. The following applies: used by hematologists in 1970s.

In the case of Arsenic trioxide [As2O3], in the data set on VSMCs, the “effects on VSMCs” value was “anti-proliferation, apoptosis promotion and cell cycle arrest”. The “therapeutic effect in promyelocytic leukemia” value with promyelocytic leukemia was “notable therapeutic effect”.
